The source of these data is patent US5876751A, “Antispasmodic and antinflammatory composition and a process for the manufacture thereof” (priority 1996, dated 1999).

As a reminder, the inhibition is how much of the control response was suppressed.

Structures can show the parent of a compound that is named as a salt. Where two headings read alike, the source gives them in different places.

The conditions of series [1]: in vivo; cited from earlier work.
The next series deals with rat colon. Nature of the series: Inhibition of acetylcholine-induced contraction in isolated distal portion of colon of rat, without and with diclofenac sodium. Conditions: for inhibition at 0.0005 µg/mL / inhibition at 0.001 µg/mL / inhibition at 0.002 µg/mL / inhibition at 0.01 µg/mL / inhibition at 0.02 µg/mL / inhibition at 0.04 µg/mL / inhibition at 0.08 µg/mL: Rattus norvegicus, Ach 100 ng/ml; for inhibition at 0.0005 µg/mL: fenpiverinium bromide 0.5 ng/ml; for inhibition at 0.001 µg/mL: fenpiverinium bromide 1.0 ng/ml; for inhibition at 0.002 µg/mL: fenpiverinium bromide 2.0 ng/ml; for inhibition at 0.01 µg/mL: pitofenone HCl 10 ng/ml; for inhibition at 0.02 µg/mL: pitofenone HCl 20 ng/ml; for inhibition at 0.04 µg/mL: pitofenone HCl 40 ng/ml; for inhibition at 0.08 µg/mL: pitofenone HCl 80 ng/ml. The procedure: In order to see the effect of NSAID on the antispasmodic activity of pitifenone hydrochloride and fenpiverinium bromide an experiment was conducted on standard isolated tissues of experimental animal. The tissue chosen for the experiment was the distal portion of colon of rat. The NSAID selected for the experiment was diclofenac sodium. The percentage inhibition of acetylcholine-induced contraction (at dosage level of 100 ng/m) was studied with varied concentration of pitofenone hydrochloride in the dose range of 10-80 nano gm/ml. […] The data obtained in the experiment is collected in Table -2.

The conditions of series [2]: cited from earlier work.
For series [3] the following is noted: Brogden et al, Drugs 20;24-48 (1980); cited from earlier work.
Setting [4] is: before diclofenac Na, read-out: Percentage inhibition of Ach induced contraction, before diclofenac Na.
Setting [5] is: with diclofenac sodium (20 μgm/ml), read-out: Percentage inhibition of Ach induced contraction, after diclofenac Na.
Setting [6] is: with diclofenac sodium 20 μg/ml, read-out: Percentage inhibition of Ach induced contraction, after diclofenac Na.

On to `Cc1c(N(C)CS(=O)(=O)O)c(=O)n(-c2ccccc2)n1C` [Analgin], for which, in series [1], the bone marrow depression entry is recorded as “implicated in causing bone marrow depression”.

Consider `C[N+]1(CCC(C(N)=O)(c2ccccc2)c2ccccc2)CCCCC1` [Fenpiverinium Bromide, fenpiverinium bromide], for which, in the series with rat colon (setting [4]), the inhibition at 0.0005 µg/mL worked out at 43.8%, the inhibition at 0.001 µg/mL was 78.7% and the inhibition at 0.002 µg/mL was found to be 100%. Further, in the series with rat colon (setting [5]), the inhibition at 0.0005 µg/mL is 100%, the inhibition at 0.001 µg/mL was determined as 100% and the inhibition at 0.002 µg/mL was 100%.

Consider `COC(=O)c1ccccc1C(=O)c1ccc(OCCN2CCCCC2)cc1` [Pitofenone Hcl, pitofenone hydrochloride], for which, in the series on rat colon (setting [4]), the inhibition at 0.01 µg/mL turned out to be 0%, the inhibition at 0.02 µg/mL came out at 0%, the inhibition at 0.04 µg/mL was 0% and the inhibition at 0.08 µg/mL came to 20.2%. Moreover, in the series with rat colon (setting [6]), the inhibition at 0.01 µg/mL stood at 100%, the inhibition at 0.02 µg/mL turned out to be 100%, the inhibition at 0.04 µg/mL was 100% and the inhibition at 0.08 µg/mL was 100%.

On to `O=C(O)Cc1ccccc1Nc1c(Cl)cccc1Cl` [diclofenac sodium], for which, in series [2] (intramuscular, acute renal colic), the “side effects vs pethidine intramuscular” value was “fewer side effects”. In addition, the “effectiveness in the management of acute renal colic vs pethidine intramuscular” value in series [2] (intramuscular) was “more effective than narcotic analgesic like pethidine intramuscular”.

Regarding `O=C(O)Cc1ccccc1Nc1c(Cl)cccc1Cl` [diclofenac], the “use in painful non-rheumatic syndromes” value in series [2] (biliary colic (Grossi et al.), acute renal colic (Garcia Alonso et al.)) is recorded as “of use in painful non-rheumatic syndromes”. The “potentiation of antispasmodic action of pitofenone hydrochloride and fenpiverinium bromide” value in the series with rat colon (general statement of findings) is “potentiates the antispasmodic action of pitofenone hydrochloride and fenpiverinium bromide several times”. Also, in the series on rat colon (rat colon, diclofenac sodium 20 μg/ml, pitofenone HCl 10-80 ng/ml), the “action with pitofenone hydrochloride as an antispasmodic” value is given as “synergistic (potentiating) action”. Also, the “action with fenpiverinium bromide as an antispasmodic” value in the series with rat colon (rat colon, diclofenac sodium 20 μgm/ml, fenpiverinium bromide 0.5-2 ng/ml) is “synergistic (potentiating) action”. The reported pharmacological activity entry in series [3] was “anti inflammatory activity, analgesic activity and anti pyretic activity”.
